A short description of the series: physchem.
Where [1] appears, read: LogPA (logP of the stated pure compound or, in a mixture, of the main isomer, 1-substituted 3-aryl-1H-pyrazole).

Broadly, the chromatographic logP is lipophilicity estimated from chromatographic retention. As for `COCC(=O)Nc1nccc(-c2cn(C(C)C)nc2-c2ccc(F)cc2)n1` [Compound 354], under “LogPA”, the chromatographic logP was determined as 2.37.

As for `O=C(Nc1ccccc1)c1cc(-c2cn(C3CCCCO3)nc2-c2ccc(F)cc2)ccn1` (stereo not drawn) [Compound 94], the chromatographic logP under setting [1] is 4.34.

Where the note is “pH 2.3, LogP (pH 2.3)”, `NS(=O)(=O)c1ccc(-c2c(-c3ccncc3)cnn2C2CCCCO2)cc1` (stereo not drawn) [[X-23], 4-[4-(pyridin-4-yl)-1-(tetrahydro-2H-pyran-2-yl)-1H-pyrazol-5-yl]benzenesulphonamide] came in with a chromatographic logP of 0.92.

On to `Fc1ccc(-c2nn(Cc3ccc(-c4ccccc4)cc3)cc2-c2ccncc2)cc1` [Compound 131], for which the chromatographic logP under setting [1] amounted to 2.39.

On to `Cc1csc2c(-c3cn(CC4CC4)nc3-c3ccc(F)cc3)ncnc12` [Compound 289], for which the chromatographic logP (LogPA) is 3.45.

Consider `FC(F)(F)Oc1ccc(-c2c(-c3ccncc3)cnn2C2CCCCO2)cc1` (stereo not drawn) [Compound 71], for which the chromatographic logP under setting [1] came to 1.78.

For the molecule `N#Cc1cc(-c2c(-c3ccncc3)cnn2C2CCCCO2)ccc1F` (stereo not drawn) [[X-12], 2-fluoro-5-[4-(pyridin-4-yl)-1-(tetrahydro-2H-pyran-2-yl)-1H-pyrazol-5-yl]benzonitrile], under “pH 2.3, LogP (pH 2.3)”, the chromatographic logP was 1.45.

Consider `FC(F)(F)Oc1ccc(-c2c(-c3ccncc3)cnn2C2CCCCO2)cc1` (stereo not drawn) [[X-19], 4-{1-(tetrahydro-2H-pyran-2-yl)-5-[4-(trifluoromethoxy)phenyl]-1H-pyrazol-4-yl}pyridine], for which the chromatographic logP (pH 2.3, LogP (pH 2.3)) worked out at 1.78.

Regarding `CC(C)n1cc(-c2ncnc3c2CCCN3)c(-c2ccc(F)cc2)n1` [Compound 311], the chromatographic logP (LogPA) came to 1.29.

For `COC(=O)C(C(C)C)n1cc(Br)c(-c2ccc(F)cc2)n1` (stereo not drawn) [[VI-16], Methyl 2-[4-bromo-3-(4-fluorophenyl)-1H-pyrazol-1-yl]-3-methylbutanoate], the chromatographic logP came out at 4.27 (pH 2.3, LogP (pH 2.3)) and 4.27 (pH 2.7, logP (pH 2.7)).

The molecule `CC(C)C(=O)Nc1cc(B2OC(C)(C)C(C)(C)O2)ccn1` [[XV-a-4], 2-Methyl-N-[4-(4,4,5,5-tetramethyl-1,3,2-dioxaborolan-2-yl)pyridin-2-yl]propanamide] returned a chromatographic logP (pH 2.7, logP (pH 2.7)) of 0.04.

As for `Cn1cc(-c2ccnc(N)c2)c(-c2ccc(F)cc2)n1` [[III-5], 4-[3-(4-Fluorophenyl)-1-methyl-1H-pyrazol-4-yl]pyridin-2-amine], the chromatographic logP is 0.71 (pH 2.3, LogP (pH 2.3)) and 0.71 (pH 2.7, logP (pH 2.7)).

As to `Fc1ccc(-c2nn(C3CC3)cc2Br)cc1` [[VI-26], 4-Bromo-1-cyclopropyl-3-(4-fluorophenyl)-1H-pyrazole], the chromatographic logP runs as follows: (pH 2.3, LogP (pH 2.3)) 3.59; (pH 2.7, logP (pH 2.7)) 3.59.

For the molecule `CS(=O)(=O)c1ccc(-c2c(-c3ccncc3)cnn2C2CCCCO2)cc1` (stereo not drawn) [[X-17], 4-{5-[4-(methylsulphonyl)phenyl]-1-(tetrahydro-2H-pyran-2-yl)-1H-pyrazol-4-yl}pyridine], the chromatographic logP (pH 2.3, LogP (pH 2.3)) came out at 0.96.

In the case of `c1cnc2c(-c3c(-c4ccncc4)cnn3C3CCCCO3)cccc2c1` (stereo not drawn) [[X-24], 8-[4-(pyridin-4-yl)-1-(tetrahydro-2H-pyran-2-yl)-1H-pyrazol-5-yl]quinoline], where the note is “pH 2.3, LogP (pH 2.3)”, the chromatographic logP came to 1.09.

For `Fc1ccc(-c2nn(C3CCCCO3)cc2-c2cc(N3CCOCC3)ncn2)cc1` (stereo not drawn) [Compound 52], under setting [1], the chromatographic logP turned out to be 1.49.

Consider `CC(C)=CCn1cc(-c2ccncn2)c(-c2cccc(Cl)c2)n1` [Compound 34], for which the chromatographic logP under setting [1] was 3.5.

`CC(C)C(=O)Nc1cc(-c2cn(OC3CCCC3)nc2-c2ccc(F)cc2)ccn1` [Compound 270] registered a chromatographic logP (LogPA) of 3.65.

`c1ccc(Oc2cccc(-c3c(-c4ccncc4)cnn3C3CCCCO3)c2)cc1` (stereo not drawn) [Compound 67, 4-[5-(3-phenoxyphenyl)-1-(tetrahydro-2H-pyran-2-yl)-1H-pyrazol-4-yl]pyridine]: under setting [1], the chromatographic logP was 1.88.

`COCC(=O)Nc1cc(-c2c(-c3cc(F)c(C#N)cc3F)nn(C)c2OC(F)F)ccn1` [Compound 199]: the chromatographic logP (LogPA) stood at 2.59.

Consider `OCC(O)Cn1cc(-c2ccncc2)c(-c2ccc(F)cc2)n1` (stereo not drawn) [Compound 124], for which, under setting [1], the chromatographic logP was found to be 0.17.

`CC(C)Cn1cc(-c2ccnc(S(C)(=O)=O)n2)c(-c2ccc(F)cc2)n1` [Compound 287]: the chromatographic logP (LogPA) was found to be 2.9.

Molecule `CC(C)n1cc(-c2ccnc(S(C)(=O)=O)n2)c(-c2ccc(F)cc2)n1` [[XLI-1], 4-[3-(4-Fluorophenyl)-1-isopropyl-1H-pyrazol-4-yl]-2-(methylsulphonyl)pyrimidine] gave a chromatographic logP (pH 2.7, logP (pH 2.7)) of 2.9.

Take `Nc1cc(-c2cn(C3CCCCO3)nc2-c2ccc(F)cc2)ccn1` (stereo not drawn) [Compound 39]: under setting [1], the chromatographic logP worked out at 1.38.

In turn, `CCC(=O)Nc1nccc(-c2cn(C(C)C)nc2-c2ccc(F)cc2)n1` [[I-g-1], N-{4-[3-(4-Fluorophenyl)-1-isopropyl-1H-pyrazol-4-yl]pyrimidin-2-yl}propanamide] showed a chromatographic logP (pH 2.7, logP (pH 2.7)) of 2.35.

The molecule `CC(C)n1ncc(-c2ccncc2)c1-c1c(F)cccc1F` [[I-d-2], 4-[5-(2,6-Difluorophenyl)-1-isopropyl-1H-pyrazol-4-yl]pyridine] displayed a chromatographic logP (pH 2.7, logP (pH 2.7)) of 1.54.

For the molecule `CC(c1ccccc1F)n1cc(Br)c(-c2ccc(F)cc2)n1` (stereo not drawn) [[VI-9], 4-bromo-3-(4-fluorophenyl)-1-[1-(2-fluorophenyl)ethyl]-1H-pyrazole], the chromatographic logP (pH 2.3, LogP (pH 2.3)) stood at 4.77 and the chromatographic logP (pH 2.7, logP (pH 2.7)) stood at 3.63.

As to `CN(C)c1cccc(-c2c(-c3ccncc3)cnn2C2CCCCO2)c1` (stereo not drawn) [[X-21], N,N-dimethyl-3-[4-(pyridin-4-yl)-1-(tetrahydro-2H-pyran-2-yl)-1H-pyrazol-5-yl]aniline], the chromatographic logP (pH 2.3, LogP (pH 2.3)) is 1.33.

For the setting “pH 2.3, LogP (pH 2.3)”, `FC1(F)Oc2cccc(-c3c(-c4ccncc4)cnn3C3CCCCO3)c2O1` (stereo not drawn) [[X-4], 4-[5-(2,2-difluoro-1,3-benzodioxol-4-yl)-1-(tetrahydro-2H-pyran-2-yl)-1H-pyrazol-4-yl]pyridine] showed a chromatographic logP of 1.64.

Consider `Cn1nc(-c2ccc(F)cc2)c(Br)c1OC(F)F` [[VI-b-1], 4-Bromo-5-(difluoromethoxy)-3-(4-fluorophenyl)-1-methyl-1H-pyrazole], for which the chromatographic logP by setting is: (pH 2.3, LogP (pH 2.3)) 3.52; (pH 2.7, logP (pH 2.7)) 3.52.

On to `CC1(C)OB(c2cn(CCCl)nc2-c2ccc(F)cc2)OC1(C)C` [[V-10], 1-(2-Chloroethyl)-3-(4-fluorophenyl)-4-(4,4,5,5-tetramethyl-1,3,2-dioxaborolan-2-yl)-1H-pyrazole], for which the chromatographic logP is, setting by setting: (pH 2.3, LogP (pH 2.3)) 4.06; (pH 2.7, logP (pH 2.7)) 4.06.

Where the note is “LogPA”, `CC(C)Cn1cc(-c2ccnc(N(C(=O)C(C)(C)C(=O)C(C)C)C(C)C)n2)c(-c2ccc(F)cc2)n1` [Compound 186] showed a chromatographic logP of 3.02.

`Cn1cc(Br)c(-c2ccc(F)cc2)n1` [[V1-8], 4-Bromo-3-(4-fluorophenyl)-1-methyl-1H-pyrazole] registered a chromatographic logP (pH 2.7, logP (pH 2.7)) of 2.86.

Take `c1ccc(COc2ccccc2-c2c(-c3ccncc3)cnn2C2CCCCO2)cc1` (stereo not drawn) [[X-22], 4-{5-[2-(benzyloxy)phenyl]-1-(tetrahydro-2H-pyran-2-yl)-1H-pyrazol-4-yl}pyridine]: the chromatographic logP (pH 2.3, LogP (pH 2.3)) amounted to 1.64.

`Fc1ccc(-c2c(-c3ccncc3)cnn2C2CCCCO2)cc1Cl` (stereo not drawn) [[X-6], 4-[5-(3-chloro-4-fluorophenyl)-1-(tetrahydro-2H-pyran-2-yl)-1H-pyrazol-4-yl]pyridine] gave a chromatographic logP (pH 2.3, LogP (pH 2.3)) of 1.57.

As for `CC1(C)OB(c2cn(C3CC3)nc2-c2ccc(F)cc2)OC1(C)C` [[V-7], 1-Cyclopropyl-3-(4-fluorophenyl)-4-(4,4,5,5-tetramethyl-1,3,2-dioxaborolan-2-yl)-1H-pyrazole], the chromatographic logP (pH 2.3, LogP (pH 2.3)) was found to be 3.47 and the chromatographic logP (pH 2.7, logP (pH 2.7)) worked out at 3.47.

With `COc1ccc(-c2nn(C3CCCCO3)cc2-c2ccnc3[nH]ccc23)cc1` (stereo not drawn) [Compound 80], under setting [1], the chromatographic logP came to 1.87.

Molecule `Cc1csc2c(-c3cn(CC(C)C)nc3-c3ccc(F)cc3)ncnc12` [Compound 288] yielded a chromatographic logP (LogPA) of 3.85.

Regarding `CC1(C)OB(c2cn(CC3CC3)nc2-c2ccc(F)cc2)OC1(C)C` [[V-8], 1-(Cyclopropylmethyl)-3-(4-fluorophenyl)-4-(4,4,5,5-tetramethyl-1,3,2-dioxaborolan-2-yl)-1H-pyrazole], the chromatographic logP runs as follows: (pH 2.3, LogP (pH 2.3)) 4.42; (pH 2.7, logP (pH 2.7)) 4.42.

Consider `COc1ccc(-c2nn(C3CCCCO3)cc2-c2ccnc(C)n2)cc1` (stereo not drawn) [Compound 77], for which, under setting [1], the chromatographic logP worked out at 2.27.

For the molecule `COc1ccc(-c2nn(C3CCCCO3)cc2-c2ccnc(C)c2)cc1` (stereo not drawn) [Compound 73], the chromatographic logP under setting [1] is 1.33.

Take `Cn1cc(B2OC(C)(C)C(C)(C)O2)c(-c2ccc(F)cc2)n1` [[V-9], 3-(4-Fluorophenyl)-1-methyl-4-(4,4,5,5-tetramethyl-1,3,2-dioxaborolan-2-yl)-1H-pyrazole]: the chromatographic logP runs as follows: (pH 2.3, LogP (pH 2.3)) 3.47; (pH 2.7, logP (pH 2.7)) 3.47.

Consider `CC(C)(C)c1ccc(-c2c(-c3ccncc3)cnn2C2CCCCO2)cc1` (stereo not drawn) [Compound 57, 4-[5-(4-tert-butylphenyl)-1-(tetrahydro-2H-pyran-2-yl)-1H-pyrazol-4-yl]pyridine], for which the chromatographic logP under setting [1] turned out to be 2.02.

Where the note is “pH 2.3, LogP (pH 2.3)”, `CC(C)(C)c1ccc(-c2c(-c3ccncc3)cnn2C2CCCCO2)cc1` (stereo not drawn) [[X-9], 4-[5-(4-tert-butylphenyl)-1-(tetrahydro-2H-pyran-2-yl)-1H-pyrazol-4-yl]pyridine] gave a chromatographic logP of 2.02.

For `CSCCn1cc(Br)c(-c2ccc(F)cc2)n1` [[VI-15], 4-Bromo-3-(4-fluorophenyl)-1-[2-(methylsulphanyl)ethyl]-1H-pyrazole], the chromatographic logP runs as follows: (pH 2.3, LogP (pH 2.3)) 3.63; (pH 2.7, logP (pH 2.7)) 3.63.

As for `O=C(Cc1ccnc(Cl)n1)c1ccc(F)cc1` [[XLIII-1], 2-(2-Chloropyrimidin-4-yl)-1-(4-fluorophenyl)ethanone], the chromatographic logP (pH 2.7, logP (pH 2.7)) came out at 2.27.

`CCCn1cc(Br)c(-c2ccc(F)cc2)n1` [[VI-14], 4-Bromo-3-(4-fluorophenyl)-1-propyl-1H-pyrazole]: the chromatographic logP stood at 3.89 (pH 2.3, LogP (pH 2.3)) and 3.89 (pH 2.7, logP (pH 2.7)).

Where the note is “LogPA”, `FCC(CF)n1cc(-c2ccncc2)c(-c2ccc(F)cc2)n1` [Compound 177] came in with a chromatographic logP of 1.16.

Take `CC(C)C(=O)Nc1cc(Br)ccn1` [[IV-c-1], N-(4-bromopyridin-2-yl)-2-methylpropanamide]: the chromatographic logP (pH 2.7, logP (pH 2.7)) came to 2.09.

Source of the values: patent US20110183978A1, “Phenylpyri(mi)dinylazoles” (Bayer CropScience AG, priority 2009, published 2011).
